# Experiments:
# [1] = Sonoactivation of IRDye 700DX solution; reactive oxygen species detected with dihydrorhodamine 123 (DHRd123) indicator
# Description: The results illustrate that ultrasonic waves enhance the emission of a reactive oxygen species indicator, which indicates the occurrence of one of the sonodynamic effects generated by applying ultrasonic energy to IRDye® 700DX under the experimental conditions. In this example, the concentration of IRDye® 700DX was 1 μm.
# The experiment included dihydroxy rhodamine 123 to detect the presence of reactive oxygen species. Reactive oxygen species were detected.
# The results illustrate a continuous treatment of a 1 MHz ultrasonic wave. […] The experiment included dihydroxy rhodamine 123 to detect the presence of reactive oxygen species. Reactive oxygen species were detected. […]
# [2] = Sonoactivation of IRDye 700DX solution; singlet oxygen detected with Sensor Green indicator; conditions: ultrasonic wave at 1MHz and 2.0W/cm^2
# Description: As shown therein, there is generation of singlet oxygen during the sonodynamic process. By applying the ultrasonic wave at 1MHz and 2.0W/cm^2 to the agent IRDye® 700DX, the enhancement of the emission of the singlet oxygen indicator, Sensor Green (SG), indicates the occurrence of a sonodynamic effects. Singlet oxygen was detected.
# Both sonosensitization, also known as sonodynamic activation or sonoactivation, and photosensitization, also known as photodynamic activation or photoactivation, trigger reactive oxidation species (ROS) or single oxygen (^1O2) that results in cell death via either apoptosis or necrosis, and thus sonodynamic therapy (SDT) or photodynamic therapy (PDT), respectively.
# [3] = Emission profile of IRDye 700DX (700 nm range) after ultrasound: stability of the dye; assay type: physicochemical; conditions: 1MHz ultrasonic wave at 3 W/cm^2, 15 minutes
# A431 cells = test: VB-48 Assay: vitality, viability and necrosis after probe labeling and irradiation; assay type: cell-based; conditions: irradiated 32 J/cm^2; RGD-700DX 0.5 μM, EGF-700DX 0.5 μM, 700DX NHSe 5 μM, Pan-700DX ~0.1 μM; 24 hours post treatment
# Procedure: Briefly, A431 cells were labeled with respective probes for specific treatments (listed below); cells were rinsed and evaluated for labeling. The test include the following treatments: […], treatments 3-4 of EGF-IRDye® 700DX at 0.5 μM and radiation, treatments 5-6 of IRDye® 700DX NHSe at 5 μM and radiation, treatments 7-8 of panitumumab-IRDye® 700DX at about 0.1 μM and radiation, treatment 9 of a negative control with no probe and no irradiation, and treatment 10 of RGD-IRDye® 700DX and no irradiation. The probes were incubated for about 10 minutes and with a longer period of about 20 minutes for the RGD probe.
# [4] = continuous treatment of a 1 MHz ultrasonic wave
compound,measurement,setting,value
C[Si](C)(CCC[N+](CCCS(=O)(=O)[O-])(CCCS(=O)(=O)[O-])CCCS(=O)(=O)[O-])O[Si]1(O[Si](C)(C)CCC[N+](CCCS(=O)(=O)[O-])(CCCS(=O)(=O)[O-])CCCS(=O)(=O)[O-])n2c3c4ccccc4c2N=C2N=C(N=c4c5ccccc5c(n41)=NC1=NC(=N3)c3ccccc31)c1cccc(OCCCOC(=O)NCCCCCC(=O)ON3C(=O)CCC3=O)c12.[Na+].[Na+].[Na+].[Na+] (centres unmarked) [IRDye® 700DX],Primary Sonodynamic Effect Detected,"[1]; 700DX 1 uM with DHRd123, no sonodynamic activation (placebo), 7 min",None
same,Primary Sonodynamic Effect Detected,"[1]; 700DX 1 uM with DHRd123, no sonodynamic activation (placebo), 15 min",Minimal
same,Primary Sonodynamic Effect Detected,"[1]; 700DX with DHRd123, 1 MHz, 2.2 W/cm^2, 7 + 7 min, duty cycle 20%, 370 J/cm^2",ROS+
same,Primary Sonodynamic Effect Detected,"[1]; 700DX with DHRd123, 1 MHz, 2.2 W/cm^2, 7 min, duty cycle 20%, 185 J/cm^2",ROS
same,Primary Sonodynamic Effect Detected,"[1]; 700DX with DHRd123, 1 MHz, 2.2 W/cm^2, 15 min, duty cycle 20%, 396 J/cm^2",ROS++
same,Primary Sonodynamic Effect Detected,"[1]; 700DX with DHRd123, 3.3 MHz, 3 W/cm^2, 7 min, duty cycle 20%, 252 J/cm^2",ROS
same,Primary Sonodynamic Effect Detected,"[1]; 700DX with DHRd123, 3.3 MHz, 3 W/cm^2, 15 min, duty cycle 20%, 540 J/cm^2",ROS++
same,emission of the reactive oxygen species indicator (FIG. 3),"[1]; IRDye 700DX 1 μm, 1MHz ultrasonic wave at 3 W/cm^2, 15 minutes",large increase in the emission of the indicator
same,emission peak of the reactive oxygen species indicator (FIG. 3),"[1]; IRDye 700DX 1 μm, duration 7 minutes",not as enhanced as with 15 minutes duration
same,"presence of reactive oxygen species (dihydroxy rhodamine 123), FIG. 3","[1]; IRDye 700DX 1 μm, ultrasonic wave 7 or 15 minutes",detected
same,effect of increasing the pulse duration on reactive oxygen species (FIG. 4),[1]; [4],increases the generation of reactive oxygen species
same,"presence of reactive oxygen species (dihydroxy rhodamine 123), FIG. 4",[1]; [4],detected
same,"generation of singlet oxygen (Sensor Green), FIG. 5",[2],detected
same,chemical structure of the dye after sonodynamic activation (emission profile at 700 nm range),[3],did not decompose
EGF-700DX,Cells/mL,A431 cells,3.4 × 10^5 Cells/mL
same,Low % Vitality,A431 cells,19%
"COC(=O)c1ccccc1C1c2ccc(N)cc2Oc2cc(N)ccc21 [Sensitizer DHRd123 Solution, dihydrorhodamine 123, reference compound]",Primary Sonodynamic Effect Detected,"[1]; DHRd123 solution 2.5 uM alone, no IRDye 700DX, no sonodynamic activation",None
same,Primary Sonodynamic Effect Detected,"[1]; DHRd123 solution alone, no IRDye 700DX, 3.3 MHz, 3 W/cm^2, 15 min, duty cycle 20%, 540 J/cm^2",ROS
Pan-700DX: panitumumab antibody labeled with IRDye 700DX,% Healthy,A431 cells,15.0%
same,% Necrotic,A431 cells,70%
same,Cells/mL,A431 cells,1.2 × 10^5 Cells/mL
same,Est % Viability,A431 cells,30-40%
same,Low % Vitality,A431 cells,15%

# Reference: patent publication US20190070296A1, “SONODYNAMIC THERAPY” (LI-COR, INC., priority 2017, published 2019)
